Test results taken from patent US12252524B2, “GIP/GLP1 co-agonist compounds” (Eli Lilly and Company, priority 2018, dated 2025).
Numbered stars: 1 amine (or outer) side, 2 acyl side, 3 side chain; on linkers, the order of the positions; unused ones are H or OH. Square brackets hold non-standard residues; d marks the D form. Side chains are listed from the residue outwards. Peptide text beside a SMILES is read from it. * marks the point of attachment. C20 diacid = O=C(O)CCCCCCCCCCCCCCCCCCC(=O)*; C18 diacid = O=C(O)CCCCCCCCCCCCCCCCC(=O)*; αMePhe(2-F) = C[C@](N)(Cc1ccccc1F)C(=O)O; γGlu = O=C(O)[C@H](CCC(=O)[*:2])N[*:1]; 3Pal = N[C@@H](Cc1cccnc1)C(=O)O; αMeL = CC(C)C[C@](C)(N)C(=O)O; αMeP = C[C@@]1(C(=O)O)CCCN1; AEEA = NCCOCCOCC(=O)O; Aib = CC(C)(N)C(=O)O

Tests used:
[1] = molecular target: T1, gastric inhibitory peptide receptor (GIPR) (Homo sapiens, UniProt P48546); experiment: cAMP pharmacological functional assay in presence of casein, hGIPR; format: cell-based; details: HEK293 cells expressing hGIPR, 0.1% Casein, geometric mean; read-out: hGIPR cAMP Rel EC50 nM (SEM, n)
T1 sequence (P48546 22-466): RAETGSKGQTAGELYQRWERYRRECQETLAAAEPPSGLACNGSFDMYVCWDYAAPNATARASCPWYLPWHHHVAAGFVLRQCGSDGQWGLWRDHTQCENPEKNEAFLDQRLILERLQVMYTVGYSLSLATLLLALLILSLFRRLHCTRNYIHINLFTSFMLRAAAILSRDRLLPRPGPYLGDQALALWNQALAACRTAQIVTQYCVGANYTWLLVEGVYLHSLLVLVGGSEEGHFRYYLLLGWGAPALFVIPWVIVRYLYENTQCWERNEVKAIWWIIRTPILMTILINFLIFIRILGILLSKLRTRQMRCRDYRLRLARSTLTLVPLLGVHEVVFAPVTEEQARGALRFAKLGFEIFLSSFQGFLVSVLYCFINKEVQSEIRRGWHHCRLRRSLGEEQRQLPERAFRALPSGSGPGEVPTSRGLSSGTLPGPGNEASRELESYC

[2] = molecular target: human GLP-1 receptor (GLP-1R) (Homo sapiens, UniProt P43220); experiment: cAMP pharmacological functional assay in presence of casein, hGLP-1R; format: cell-based; details: HEK293 cells expressing hGLP-1R, 0.1% Casein, geometric mean; read-out: hGLP1R cAMP Rel EC50 nM (SEM, n)
Sequence of human GLP-1 receptor (GLP-1R) (P43220 24-463): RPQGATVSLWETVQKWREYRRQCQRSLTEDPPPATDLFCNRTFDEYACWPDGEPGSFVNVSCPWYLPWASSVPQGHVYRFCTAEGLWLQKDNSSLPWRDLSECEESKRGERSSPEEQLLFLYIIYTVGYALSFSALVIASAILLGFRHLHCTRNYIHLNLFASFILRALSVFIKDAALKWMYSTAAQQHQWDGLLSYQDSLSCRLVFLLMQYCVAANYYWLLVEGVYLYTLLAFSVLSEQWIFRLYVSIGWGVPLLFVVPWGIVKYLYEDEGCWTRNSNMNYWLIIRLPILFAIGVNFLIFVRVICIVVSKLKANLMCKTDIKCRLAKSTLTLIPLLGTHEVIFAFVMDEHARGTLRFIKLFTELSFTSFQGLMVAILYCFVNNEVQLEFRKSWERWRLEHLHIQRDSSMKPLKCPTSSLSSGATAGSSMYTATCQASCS

Compound `CC[C@H](C)[C@H](NC(=O)[C@H](CC(C)C)NC(=O)[C@H](Cc1ccc(O)cc1)NC(=O)[C@@H](CCC(=O)O)NC(=O)[C@@H](NC(=O)[C@H](Cc1ccccc1)NC(=O)[C@H](CCC(=O)O)NC(=O)C(C)(C)NC(=O)[C@H](CCC(N)=O)NC(=O)[C@H](C)NC(=O)[C@H](CCCCNC(=O)COCCOCCNC(=O)COCCOCCNC(=O)CC[C@H](NC(=O)CCCCCCCCCCCCCCCCCCC(=O)O)C(=O)O)NC(=O)[C@H](CCC(=O)O)NC(=O)[C@H](CC(=O)O)NC(=O)[C@H](CC(C)C)NC(=O)[C@](C)(CC(C)C)NC(=O)[C@@H](NC(=O)[C@H](CO)NC(=O)[C@H](Cc1cccnc1)NC(=O)[C@H](CC(=O)O)NC(=O)[C@H](CO)NC(=O)[C@@H](NC(=O)[C@](C)(Cc1ccccc1F)NC(=O)[C@@H](NC(=O)CNC(=O)[C@H](CCC(=O)O)NC(=O)C(C)(C)NC(=O)[C@@H](N)Cc1c[nH]cn1)[C@@H](C)O)[C@@H](C)O)[C@@H](C)CC)[C@@H](C)CC)C(=O)N[C@@H](CCC(=O)O)C(=O)NCC(=O)NCC(=O)N1CCC[C@H]1C(=O)N[C@@H](CO)C(=O)N[C@@H](CO)C(=O)NCC(=O)N[C@@H](C)C(=O)N1CCC[C@H]1C(=O)N1CCC[C@H]1C(=O)N1CCC[C@H]1C(=O)N[C@@H](CO)C(N)=O` [Example 190] (H-H[Aib]EGT[αMePhe(2-F)]TSD[3Pal]SI[αMeL]LDEK([AEEA-AEEA-γGlu-C20 diacid])AQ[Aib]EFI[dE]YLIEGGPSSGAPPPS-NH2) has an EC50 [1] of 0.738 nM and an EC50 [2] of 0.0241 nM.

With `CC[C@H](C)[C@H](NC(=O)[C@H](CC(C)C)NC(=O)[C@H](Cc1ccc(O)cc1)NC(=O)[C@H](CCC(=O)O)NC(=O)[C@@H](NC(=O)[C@H](Cc1ccccc1)NC(=O)[C@H](C)NC(=O)[C@H](CCC(N)=O)NC(=O)[C@H](CCC(N)=O)NC(=O)[C@H](C)NC(=O)[C@H](CCCCNC(=O)COCCOCCNC(=O)COCCOCCNC(=O)CC[C@H](NC(=O)CCCCCCCCCCCCCCCCCCC(=O)O)C(=O)O)NC(=O)[C@H](CCC(=O)O)NC(=O)[C@H](CC(=O)O)NC(=O)[C@H](CC(C)C)NC(=O)[C@H](CC(C)C)NC(=O)[C@@H](NC(=O)[C@H](CO)NC(=O)[C@H](Cc1ccc(O)cc1)NC(=O)[C@H](CC(=O)O)NC(=O)[C@H](CO)NC(=O)[C@@H](NC(=O)[C@H](Cc1ccccc1)NC(=O)[C@@H](NC(=O)CNC(=O)[C@H](CCC(=O)O)NC(=O)[C@]1(C)CCCN1C(=O)[C@@H](N)Cc1ccc(O)cc1)[C@@H](C)O)[C@@H](C)O)[C@@H](C)CC)[C@@H](C)CC)C(=O)N[C@@H](CCC(=O)O)C(=O)NCC(=O)NCC(=O)N1CCC[C@H]1C(=O)N[C@@H](CO)C(=O)N[C@@H](CO)C(=O)NCC(=O)N[C@@H](C)C(=O)N1CCC[C@H]1C(=O)N1CCC[C@H]1C(=O)N1CCC[C@H]1C(=O)N[C@@H](CO)C(N)=O` [Example 193] (H-Y[αMeP]EGTFTSDYSILLDEK([AEEA-AEEA-γGlu-C20 diacid])AQQAFIEYLIEGGPSSGAPPPS-NH2) the EC50 [1] was 0.336 nM and the EC50 [2] was 0.162 nM.

Compound `CC[C@H](C)[C@H](NC(=O)[C@H](CC(C)C)NC(=O)[C@H](Cc1ccc(O)cc1)NC(=O)[C@H](CCC(=O)O)NC(=O)[C@@H](NC(=O)[C@H](Cc1ccccc1)NC(=O)[C@H](C)NC(=O)[C@H](Cc1c[nH]cn1)NC(=O)[C@H](CCC(N)=O)NC(=O)[C@H](C)NC(=O)[C@H](CCCCNC(=O)COCCOCCNC(=O)COCCOCCNC(=O)CC[C@H](NC(=O)CCCCCCCCCCCCCCCCCCC(=O)O)C(=O)O)NC(=O)[C@H](CCC(=O)O)NC(=O)[C@H](CC(=O)O)NC(=O)[C@H](CC(C)C)NC(=O)[C@H](CC(C)C)NC(=O)[C@@H](NC(=O)[C@H](CO)NC(=O)[C@H](Cc1ccc(O)cc1)NC(=O)[C@H](CC(=O)O)NC(=O)[C@H](CO)NC(=O)[C@@H](NC(=O)[C@H](Cc1ccccc1)NC(=O)[C@@H](NC(=O)CNC(=O)[C@H](CCC(=O)O)NC(=O)[C@]1(C)CCCN1C(=O)[C@@H](N)Cc1ccc(O)cc1)[C@@H](C)O)[C@@H](C)O)[C@@H](C)CC)[C@@H](C)CC)C(=O)N[C@@H](CCC(=O)O)C(=O)NCC(=O)NCC(=O)N1CCC[C@H]1C(=O)N[C@@H](CO)C(=O)N[C@@H](CO)C(=O)NCC(=O)N[C@@H](C)C(=O)N1CCC[C@H]1C(=O)N1CCC[C@H]1C(=O)N1CCC[C@H]1C(=O)N[C@@H](CO)C(N)=O` [Example 194] (H-Y[αMeP]EGTFTSDYSILLDEK([AEEA-AEEA-γGlu-C20 diacid])AQHAFIEYLIEGGPSSGAPPPS-NH2; N-terminus assumed) has an EC50 [1] of 0.423 nM and an EC50 [2] of 0.284 nM.

In the case of `CC[C@H](C)[C@H](NC(=O)[C@H](CC(C)C)NC(=O)[C@H](Cc1ccc(O)cc1)NC(=O)[C@H](CCC(=O)O)NC(=O)[C@@H](NC(=O)[C@H](Cc1ccccc1)NC(=O)[C@H](C)NC(=O)[C@H](CCC(N)=O)NC(=O)[C@H](CCC(N)=O)NC(=O)[C@H](C)NC(=O)[C@H](CCCCNC(=O)COCCOCCNC(=O)COCCOCCNC(=O)CC[C@H](NC(=O)CCCCCCCCCCCCCCCCCCC(=O)O)C(=O)O)NC(=O)[C@H](CCCNC(=N)N)NC(=O)[C@H](CC(=O)O)NC(=O)[C@H](CC(C)C)NC(=O)[C@H](CC(C)C)NC(=O)[C@@H](NC(=O)[C@H](CO)NC(=O)[C@H](Cc1ccc(O)cc1)NC(=O)[C@H](CC(=O)O)NC(=O)[C@H](CO)NC(=O)[C@@H](NC(=O)[C@H](Cc1ccccc1)NC(=O)[C@@H](NC(=O)CNC(=O)[C@H](CCC(=O)O)NC(=O)[C@]1(C)CCCN1C(=O)[C@@H](N)Cc1ccc(O)cc1)[C@@H](C)O)[C@@H](C)O)[C@@H](C)CC)[C@@H](C)CC)C(=O)N[C@@H](CCC(=O)O)C(=O)NCC(=O)NCC(=O)N1CCC[C@H]1C(=O)N[C@@H](CO)C(=O)N[C@@H](CO)C(=O)NCC(=O)N[C@@H](C)C(=O)N1CCC[C@H]1C(=O)N1CCC[C@H]1C(=O)N1CCC[C@H]1C(=O)N[C@@H](CO)C(N)=O` [Example 195] (H-Y[αMeP]EGTFTSDYSILLDRK([AEEA-AEEA-γGlu-C20 diacid])AQQAFIEYLIEGGPSSGAPPPS-NH2), the EC50 [1] is reported as 0.193 nM and the EC50 [2] is reported as 0.0966 nM.

`CC[C@H](C)[C@H](NC(=O)[C@H](CC(C)C)NC(=O)[C@H](Cc1ccc(O)cc1)NC(=O)[C@H](CCC(=O)O)NC(=O)[C@@H](NC(=O)[C@H](Cc1ccccc1)NC(=O)[C@H](C)NC(=O)[C@H](Cc1c[nH]cn1)NC(=O)[C@H](CCC(N)=O)NC(=O)[C@H](C)NC(=O)[C@H](CCCCNC(=O)COCCOCCNC(=O)COCCOCCNC(=O)CC[C@H](NC(=O)CCCCCCCCCCCCCCCCCCC(=O)O)C(=O)O)NC(=O)[C@H](CCCNC(=N)N)NC(=O)[C@H](CC(=O)O)NC(=O)[C@H](CC(C)C)NC(=O)[C@H](CC(C)C)NC(=O)[C@@H](NC(=O)[C@H](CO)NC(=O)[C@H](Cc1ccc(O)cc1)NC(=O)[C@H](CC(=O)O)NC(=O)[C@H](CO)NC(=O)[C@@H](NC(=O)[C@H](Cc1ccccc1)NC(=O)[C@@H](NC(=O)CNC(=O)[C@H](CCC(=O)O)NC(=O)[C@]1(C)CCCN1C(=O)[C@@H](N)Cc1ccc(O)cc1)[C@@H](C)O)[C@@H](C)O)[C@@H](C)CC)[C@@H](C)CC)C(=O)N[C@@H](CCC(=O)O)C(=O)NCC(=O)NCC(=O)N1CCC[C@H]1C(=O)N[C@@H](CO)C(=O)N[C@@H](CO)C(=O)NCC(=O)N[C@@H](C)C(=O)N1CCC[C@H]1C(=O)N1CCC[C@H]1C(=O)N1CCC[C@H]1C(=O)N[C@@H](CO)C(N)=O` [Example 196] (H-Y[αMeP]EGTFTSDYSILLDRK([AEEA-AEEA-γGlu-C20 diacid])AQHAFIEYLIEGGPSSGAPPPS-NH2) gave an EC50 [1] of 0.277 nM and an EC50 [2] of 0.175 nM.

For `CC[C@H](C)[C@H](NC(=O)[C@H](CC(C)C)NC(=O)[C@H](Cc1ccc(O)cc1)NC(=O)[C@H](CCC(=O)O)NC(=O)[C@@H](NC(=O)[C@H](Cc1ccccc1)NC(=O)[C@H](C)NC(=O)[C@H](CCC(N)=O)NC(=O)[C@H](CCC(N)=O)NC(=O)[C@H](C)NC(=O)[C@H](CCCCNC(=O)COCCOCCNC(=O)COCCOCCNC(=O)CC[C@H](NC(=O)CCCCCCCCCCCCCCCCC(=O)O)C(=O)O)NC(=O)[C@H](CCC(=O)O)NC(=O)[C@H](CC(=O)O)NC(=O)[C@H](CC(C)C)NC(=O)[C@H](CC(C)C)NC(=O)[C@@H](NC(=O)[C@H](CO)NC(=O)[C@H](Cc1ccc(O)cc1)NC(=O)[C@H](CC(=O)O)NC(=O)[C@H](CO)NC(=O)[C@@H](NC(=O)[C@H](Cc1ccccc1)NC(=O)[C@@H](NC(=O)CNC(=O)[C@H](CCC(=O)O)NC(=O)[C@]1(C)CCCN1C(=O)[C@@H](N)Cc1ccc(O)cc1)[C@@H](C)O)[C@@H](C)O)[C@@H](C)CC)[C@@H](C)CC)C(=O)N[C@@H](CCC(=O)O)C(=O)NCC(=O)NCC(=O)N1CCC[C@H]1C(=O)N[C@@H](CO)C(=O)N[C@@H](CO)C(=O)NCC(N)=O` [Example 197] (H-Y[αMeP]EGTFTSDYSILLDEK([AEEA-AEEA-γGlu-C18 diacid])AQQAFIEYLIEGGPSSG-NH2), the EC50 [1] was 0.211 nM and the EC50 [2] was 0.248 nM.
